Test results published in patent publication US20080176862A1, “New Compounds 617” (ASTRAZENECA AB, priority 2006, published 2008).
Where a name gives a salt, the structure may show the parent alone.

Target: T1, human β-Secretase (soluble part, AA1-AA460; sBACE-Fc) (Homo sapiens, UniProt P56817)
T1 construct: The soluble part of the human β-Secretase (AA1-AA460) was cloned into the ASP2-Fc10-1-IRES-GFP-neoK mammalian expression vector; made in house
Assay: TR-FRET assay
Type: biochemical
Details: substrate (Europium)CEVNLDAEFK(Qsy7) 100 nM, pH 4.5, 15 min at RT; read-out: IC50 (nM) in TR-FRET assay

T1 sequence (P56817 22-460): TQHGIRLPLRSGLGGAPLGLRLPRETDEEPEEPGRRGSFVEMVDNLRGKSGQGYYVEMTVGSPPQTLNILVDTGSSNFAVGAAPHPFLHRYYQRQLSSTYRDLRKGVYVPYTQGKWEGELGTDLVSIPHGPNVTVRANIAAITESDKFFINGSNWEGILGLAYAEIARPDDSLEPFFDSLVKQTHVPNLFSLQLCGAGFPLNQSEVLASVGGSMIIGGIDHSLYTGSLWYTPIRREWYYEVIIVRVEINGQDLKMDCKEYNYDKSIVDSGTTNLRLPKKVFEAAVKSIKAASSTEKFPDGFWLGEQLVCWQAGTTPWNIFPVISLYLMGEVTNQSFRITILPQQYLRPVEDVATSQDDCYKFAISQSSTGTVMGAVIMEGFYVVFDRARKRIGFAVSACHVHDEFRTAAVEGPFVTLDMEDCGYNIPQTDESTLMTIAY

SMILES	IC50
Cc1cc(C2(c3ccc(F)c(-c4cc(Cl)cc(OS(C)(=O)=O)c4)c3)N=C(N)N(C)C2=O)ccn1 (centres unmarked) [Example 307, 5′-(2-Amino-1-methyl-4-(2-methylpyridin-4-yl)-5-oxo-4,5-dihydro-1H-imidazol-4-yl)-5-chloro-2′-fluorobiphenyl-3-yl methanesulfonate hydrochloride]	104 nM
CN1C(=O)C(c2cccc(OS(C)(=O)=O)c2)(c2ccc(F)c(-c3cccnc3)c2)N=C1N (centres unmarked) [Example 90, 3-[2-Amino-4-(4-fluoro-3-pyridin-3-ylphenyl)-1-methyl-5-oxo-4,5-dihydro-1H-imidazol-4-yl]phenylmethanesulfonate]	385 nM
COc1ccc(S(=O)(=O)Oc2ccc(C3(c4ccc(F)c(-c5cncnc5)c4)N=C(N)N(C)C3=O)cc2)cc1 (centres unmarked) [Example 279, 4-[2-amino-4-(4-fluoro-3-pyrimidin-5-ylphenyl)-1-methyl-5-oxo-4,5-dihydro-1H-imidazol-4-yl]phenyl 4-methoxybenzenesulfonate]	23 nM
COc1ccc(C2(c3cccc(-c4cc(Cl)cc(OS(C)(=O)=O)c4)c3)N=C(N)N(C)C2=O)cc1C(F)(F)F (centres unmarked) [Example 61, 3′-{2-Amino-4-[4-methoxy-3-(trifluoromethyl)phenyl]-1-methyl-5-oxo-4,5-dihydro-1H-imidazol-4-yl}-5-chlorobiphenyl-3-ylmethanesulfonate]	37 nM
COc1cc(OS(C)(=O)=O)cc(-c2cc(C3(c4ccnc(C)c4)N=C(N)N(C)C3=O)ccc2F)c1 (centres unmarked) [Example 211, 5′-[2-Amino-1-methyl-4-(2-methylpyridin-4-yl)-5-oxo-4,5-dihydro-1H-imidazol-4-yl]-2′-fluoro-5-methoxybiphenyl-3-yl methanesulfonate hydrocloride]	104 nM
COc1cccc(-c2cc(C3(c4cccc(OS(=O)(=O)N(C)C)c4)N=C(N)N(C)C3=O)ccc2F)c1 (centres unmarked) [Example 112, 3-[2-Amino-4-(6-fluoro-3′-methoxybiphenyl-3-yl)-1-methyl-5-oxo-4,5-dihydro-1H-imidazol-4-yl]phenyl dimethylsulfamate]	150 nM
CN1C(=O)C(c2cccc(OS(C)(=O)=O)c2)(c2ccc(F)c(-c3cccnc3F)c2)N=C1N (centres unmarked) [Example 88, 3-{2-Amino-4-[4-fluoro-3-(2-fluoropyridin-3-yl)phenyl]-1-methyl-5-oxo-4,5-dihydro-1H-imidazol-4-yl}phenylmethanesulfonate]	234 nM
CN1C(=O)C(c2cccc(OS(C)(=O)=O)c2)(c2ccc(F)c(-c3cc(Cl)cc(Cl)c3)c2)N=C1N (centres unmarked) [Example 89, 3-[2-Amino-4-(3′,5′-dichloro-6-fluorobiphenyl-3-yl)-1-methyl-5-oxo-4,5-dihydro-1H-imidazol-4-yl]phenyl methanesulfonate]	207 nM
CCCS(=O)(=O)Oc1ccc(C2(c3ccc(F)c(-c4cncc(OC)c4)c3)N=C(N)N(C)C2=O)cc1 (centres unmarked) [Example 129, 4-{2-Amino-4-[4-fluoro-3-(5-methoxypyridin-3-yl)phenyl]-1-methyl-5-oxo-4,5-dihydro-1H-imidazol-4-yl}phenyl propane-1-sulfonate hydrochloride]	35 nM
COc1ccc(C#N)c(-c2cc(C3(c4cccc(OS(C)(=O)=O)c4)N=C(N)N(C)C3=O)ccc2F)c1 (centres unmarked) [Example 177, 3-[2-Amino-4-(2′-cyano-6-fluoro-5′-methoxybiphenyl-3-yl)-1-methyl-5-oxo-4,5-dihydro-1H-imidazol-4-yl]phenyl methanesulfonate hydrochloride]	100 nM
CCCS(=O)(=O)Oc1cccc(C2(c3ccc(F)c(-c4cc(Cl)cc(OC)c4)c3)N=C(N)N(C)C2=O)c1 (centres unmarked) [Example 99, 3-[2-Amino-4-(3′-chloro-6-fluoro-5′-methoxybiphenyl-3-yl)-1-methyl-5-oxo-4,5-dihydro-1H-imidazol-4-yl]phenyl propane-1-sulfonate]	330 nM
CN1C(=O)C(c2ccc(OC(F)(F)F)cc2)(c2cccc(-c3cc(Cl)cc(OS(C)(=O)=O)c3)c2)N=C1N (centres unmarked) [Example 59, 3′-{2-Amino-1-methyl-5-oxo-4-[4-(trifluoromethoxy)phenyl]-4,5-dihydro-1H-imidazol-4-yl}-5-chlorobiphenyl-3-ylmethanesulfonate]	128 nM
CCCS(=O)(=O)Oc1cccc(C2(c3ccc(F)c(-c4cc(Cl)cc(Cl)c4)c3)N=C(N)N(C)C2=O)c1 (centres unmarked) [Example 100, 3-[2-Amino-4-(3′,5′-dichloro-6-fluorobiphenyl-3-yl)-1-methyl-5-oxo-4,5-dihydro-1H-imidazol-4-yl]phenyl propane-1-sulfonate]	395 nM
CCCN1C(=O)C(c2ccc(OS(C)(=O)=O)cc2)(c2ccc(F)c(-c3cncnc3)c2)N=C1N (centres unmarked) [Example 165, 4-[2-Amino-4-(4-fluoro-3-pyrimidin-5-ylphenyl)-1-propyl-5-oxo-4,5-dihydro-1H-imidazol-4-yl]phenyl methanesulfonate 0.5 acetate]	589 nM
CC(C)S(=O)(=O)Oc1cccc(C2(c3ccc(F)c(-c4cc(Cl)cnc4F)c3)N=C(N)N(C)C2=O)c1 (centres unmarked) [Example 103, 3-{2-Amino-4-[3-(5-chloro-2-fluoropyridin-3-yl)-4-fluorophenyl]-1-methyl-5-oxo-4,5-dihydro-1H-imidazol-4-yl}phenyl propane-2-sulfonate]	227 nM
COc1cccc(-c2cc(C3(c4cccc(OS(C)(=O)=O)c4)N=C(N)N(C)C3=O)ccc2F)c1 (centres unmarked) [Example 93, 3-[2-Amino-4-(6-fluoro-3′-methoxybiphenyl-3-yl)-1-methyl-5-oxo-4,5-dihydro-1H-imidazol-4-yl]phenyl methanesulfonate]	146 nM
COc1ccc(OC(F)(F)F)c(-c2cc(C3(c4ccc(OS(C)(=O)=O)cc4)N=C(N)N(C)C3=O)ccc2F)c1 (centres unmarked) [Example 168, 4-{2-Amino-4-[6-fluoro-5′-methoxy-2′-(trifluoromethoxy)biphenyl-3-yl]-1-methyl-5-oxo-4,5-dihydro-1H-imidazol-4-yl}phenyl methanesulfonate]	349 nM
COc1ccc(C2(c3ccc(F)c(-c4cncnc4)c3)N=C(N)N(C)C2=O)cc1OS(=O)(=O)C(F)(F)F (centres unmarked) [Example 14, 5-[2-Amino-4-(4-fluoro-3-pyrimidin-5-ylphenyl)-1-methyl-5-oxo-4,5-dihydro-[H-imidazol-4-yl]-2-methoxyphenyl trifluoromethanesulfonate 0.5 acetate]	59 nM
CN1C(=O)C(c2cccc(OS(=O)(=O)c3c(Cl)nc4sccn34)c2)(c2ccc(F)c(Br)c2)N=C1N (centres unmarked) [Example 233, 3-[2-Amino-4-(3-bromo-4-fluorophenyl)-1-methyl-5-oxo-4,5-dihydro-1H-imidazol-4-yl]phenyl 6-chloroimidazo[2,1-b][1,3]thiazole-5-sulfonate]	321 nM
COc1ccc(OC)c(S(=O)(=O)Oc2ccc(C3(c4ccc(F)c(-c5cncnc5)c4)N=C(N)N(C)C3=O)cc2)c1 (centres unmarked) [Example 277, 4-[2-Amino-4-(4-fluoro-3-pyrimidin-5-ylphenyl)-1-methyl-5-oxo-4,5-dihydro-1H-imidazol-4-yl]phenyl 2,5-dimethoxybenzenesulfonate]	183 nM
CCCS(=O)(=O)Oc1cccc(C2(c3ccc(F)c(-c4cncc(OC)c4)c3)N=C(N)N(C)C2=O)c1 (centres unmarked) [Example 130, 3-{2-Amino-4-[4-fluoro-3-(5-methoxypyridin-3-yl)phenyl]-1-methyl-5-oxo-4,5-dihydro-1H-imidazol-4-yl}phenyl propane-1-sulfonate hydrochloride]	59 nM
CCc1cc(C2(c3ccc(F)c(-c4cc(OC)cc(OS(C)(=O)=O)c4)c3)N=C(N)N(C)C2=O)cc(CC)n1 (centres unmarked) [Example 209, 5′-[2-Amino-4-(2,6-diethylpyridin-4-yl)-1-methyl-5-oxo-4,5-dihydro-1H-imidazol-4-yl]-2′-fluoro-5-methoxybiphenyl-3-yl methanesulfonate hydrochloride]	99 nM
CCc1ccc(C2(c3ccc(F)c(-c4cncnc4)c3)N=C(N)N(C)C2=O)cc1OS(C)(=O)=O (centres unmarked) [Example 253, 5-[2-Amino-4-(4-fluoro-3-pyrimidin-5-ylphenyl)-1-methyl-5-oxo-4,5-dihydro-1H-imidazol-4-yl]-2-ethylphenyl methanesulfonate 0.5 acetate]	96 nM
CN1C(=O)C(c2ccc(OC(F)F)cc2)(c2ccc(F)c(-c3cncc(OS(C)(=O)=O)c3)c2)N=C1N (centres unmarked) [Example 73, 5-(5-{2-Amino-4-[4-(difluoromethoxy)phenyl]-1-methyl-5-oxo-4,5-dihydro-1H-imidazol-4-yl}-2-fluorophenyl)pyridin-3-yl methanesulfonate hydrochloride]	54 nM
CCN1C(=O)C(c2ccc(OS(C)(=O)=O)cc2)(c2ccc(F)c(-c3cncnc3)c2)N=C1N (centres unmarked) [Example 162, 4-[2-Amino-4-(4-fluoro-3-pyrimidin-5-ylphenyl)-1-ethyl-5-oxo-4,5-dihydro-1H-imidazol-4-yl]phenyl methanesulfonate]	682 nM
CN1C(=O)C(c2cccc(OS(C)(=O)=O)c2)(c2cccc(C3=CCCC3)c2)N=C1N (centres unmarked) [Example 195, 3-[2-Amino-4-(3-cyclopent-1-en-1-yl-phenyl)-1-methyl-5-oxo-4,5-dihydro-1H-imidazol-4-yl]phenyl methanesulfonate hydrochloride]	646 nM
CCC(C)(C)c1ccc(S(=O)(=O)Oc2cccc(C3(c4ccc(F)c(-c5cncnc5)c4)N=C(N)N(C)C3=O)c2)cc1 (centres unmarked) [Example 234, 3-[2-Amino-4-(4-fluoro-3-pyrimidin-5-ylphenyl)-1-methyl-5-oxo-4,5-dihydro-1H-imidazol-4-yl]phenyl 4-(1,1-dimethylpropyl)benzenesulfonate]	82 nM
CN1C(=O)C(c2cccc(OS(=O)(=O)c3ccc4c(c3)CCC4)c2)(c2ccc(F)c(Br)c2)N=C1N (centres unmarked) [Example 228, 3-[2-Amino-4-(3-bromo-4-fluorophenyl)-1-methyl-5-oxo-4,5-dihydro-1H-imidazol-4-yl]phenyl indane-5-sulfonate]	788 nM
COc1cccc(-c2ccnc(C3(c4ccc(OS(=O)(=O)C(F)(F)F)cc4)N=C(N)N(C)C3=O)c2)c1 (centres unmarked) [Example 298, 4-{2-Amino-4-[4-(3-methoxyphenyl)pyridin-2-yl]-1-methyl-5-oxo-4,5-dihydro-1H-imidazol-4-yl}phenyl trifluoromethanesulfonate 0.5 acetate]	874 nM
